Experimental findings from patent publication US20180127800A1 (priority 2016, published 2018) are described below.

In the assay the target is HIV-1 protease (Human immunodeficiency virus type 1 group M subtype B, UniProt P04585). The assay is classed as cell-based. The following applies: Gal4/PR cell line induced by Dox, incubated with protease inhibitor.

From the text: This type of cleavage was successfully monitored by a previously developed assay for HIV-1. The assay was developed in mammalian cells and relied on an engineered Gal4/protease fusion protein that travels to the nucleus and activates the GFP reporter gene when inhibited. The activation or lack thereof of the reporter GFP gene can be measured and quantified via flow cytometry.
In the absence of Dox, rtTA cannot bind to the Tet-Responsive Element (TRE) and consequently, there is no GFP expression from the reporter construct. In the presence of Dox, rtTA binds to TRE and induces GFP expression. […] In the presence of Dox, PR/Gal4 is expressed; however, its autocatalytic activity results in the separation of the Gal4 domains, resulting in turn in the lack of GFP expression. However, in the presence of protease inhibitor (PI), the PR/Gal4 fusion remains intact, resulting in the induction of GFP expression.
The plasmids include the rtTA, GFP reporter and Gal4 fusions. The Gal4 plasmids include Gal4 control, Gal4/PRm (mutant) and Gal4/PR.
In order to be able to easily discriminate between cleaved and non-cleaved events (or active and non-active protease), the assay relied on the classical Gal4/UAS system broadly used in gene expression experiments. […]

Regarding `CC(C)(C)NC(=O)[C@@H]1CN(Cc2cccnc2)CCN1C[C@@H](O)C[C@@H](Cc1ccccc1)C(=O)N[C@H]1c2ccccc2C[C@H]1O` [Indinavir], the “GFP expression of the PR cell line (flow cytometry)” value was “not green when induced by Dox, unless it is also incubated with the PI IDV”.
